Results from patent US20240190889A1, “NEW CYCLOPENTA-THIENO-DIAZEPINE DERIVATIVES AS GABA A GAMMA1 POSITIVE ALLOSTERIC MODULATORS” (Hoffmann-La Roche Inc., priority 2021, published 2024).
Read-outs that look alike come from different tables or passages of the source.

Assays:
[1] = biological target: human GABAA α2β2γ1 receptor (Homo sapiens (Human), UniProt P47869+Q8N1C3); experiment: Radioligand binding assay, competition for [3H]RO7239181, γ1-containing GABAA subtypes
Experimental: (§1) Membrane Preparation and Binding Assay for γ1-containing GABAA Subtypes
(§2) The affinity of compounds at GABAA γ1 subunit-containing receptors was measured by competition for [^3H]RO7239181 (67.3 Ci/mmol: Roche) binding to membranes from HEK293F cells (ThermoFisher R79007) expressing human (transiently transfected) receptors of composition α5β2γ1, α2β2γ1, α1β2γ1.
(§3) Harvested pellets from HEK293F cells expressing the different GABAA receptor subtypes were resuspended in Mannitol Buffer pH 7.2-7.4 (Mannitol 0.29 M, Tricthylamine 10 mM. Acetic acid 10 mM. EDTA 1 mM plus protease inhibitors (20 tablets Complete. Roche Diagnostics Cat. No. 05 056 489 001 per liter)), washed two times and then resuspended at 1:10 to 1:15 dilution in the same buffer. Cell disruption was performed by stirring the suspension in a Parr vessel #4637 at 435 psi for 15 minutes, and then the suspensions were centrifuged at 1000×g for 15 minutes at 4° C. (Beckman Avanti J-HC: rotor JS-4.2). The supernatant (S1) was transferred in a 21 Schott flask and the pellet (P1) was resuspended with Mannitol Buffer up to 175 ml. The resuspended pellet was transferred into a 250 ml Corning centrifugal beaker and centrifuged at 1500 ×g for 10 minutes at 4° C. (Beckman Avanti J-HC: rotor JS-4.2). The supernatant (S1) was then transferred in the 21 Schott flask and the pellet was discarded. The supernatants (S1) were centrifuged in 500ml Beckman polypropylene centrifugal beaker at 15 000×g for 30 minutes at 4° C. (Beckman Avanti J-20 XP; rotor JLA-10.500). The pellet (P2) was resuspended with Mannitol Buffer 1:1 and frozen at −80° C. The supernatant (S2) was centrifuged in 100 ml Beckman polypropylene centrifugal tubes at 48000×g for 50 minutes at 4 °C (Beckman Avanti J-20 XP: rotor JA-18). The supernatant (S3) was discarded and the pellet (P3) was resuspended with 1:1 Mannitol Buffer. The P2 and P3 protein concentration was determined with the BIORAD Standard assay method with bovine serum albumin as standard and measured on the NANO-Drop 1000. The membrane suspension was aliquots (500μl per tube) and stored at −80° C. until required.
(§4) Membrane homogenates were resuspended and polytronised (Polytron PT1200E Kinematica AG) in Potassium Phosphate 10 mM, KCl 100 mM binding buffer at pH 7.4 to a final assay concentration determined with a previous experiment.
Radioligand binding assays were carried out in a volume of 200 μL (96-well plates) which contained 100 μL of cell membranes. […] Assays were incubated to equilibrium for 1 hour at 4° C. and then, membranes were filtered onto unifilter (96-well white microplate with bonded GF/C filters preincubated 20-50 minutes in 0.3% Polyethylenimine) with a Filtermate 196 harvester (Packard BioScience) and washed 4 times with cold Potassium Phosphate 10 mM pH 7.4. KCl 100 mM binding buffer. After anhydrousing, filter-retained radioactivity was detected by liquid scintillation counting. Ki values were calculated using Excel-Fit (Microsoft) and are the means of two determinations.

[2] = biological target: human GABAA α5β2γ1 receptor (Homo sapiens (Human), UniProt P31644+Q8N1C3); experiment: as above; settings: membranes from HEK293F cells, mean of two determinations
Experimental: as §1
as §2, with “α1β2γ1. For better protein expression of the α2 subunit-containing receptors, the 28 amino acid long signal peptide (Metl to Ala28) of the human GABAA α2 subunit was substituted by the 31 amino acid long signal peptide (Met1 to Ser31) of human GABAA α5 subunit.” for “α1β2γ1.”
as §3, §4
Radioligand binding assays were carried out in a volume of 200 μL (96-well plates) which contained 100 μL of cell membranes. [^3H]RO7239181 at a concentration of 1.5 nM (α5β2γ1) or 20-30 nM (α1β2γ1, α2β2γ1) and the test compound in the range of [0.3-10000]33 10^−9 M. Nonspecific binding was defined by […] (α5β2γ1) and […] RO7239181 and typically represented less than 5% (α5β2γ1) and less than 20% (α1β2γ1, α2β2γ1) of the total binding. Assays were incubated to equilibrium for 1 hour at 4° C. and then, membranes were filtered onto unifilter (96-well white microplate with bonded GF/C filters preincubated 20-50 minutes in 0.3% Polyethylenimine) with a Filtermate 196 harvester (Packard BioScience) and washed 4 times with cold Potassium Phosphate 10 mM pH 7.4. KCl 100 mM binding buffer. After anhydrousing, filter-retained radioactivity was detected by liquid scintillation counting. Ki values were calculated using Excel-Fit (Microsoft) and are the means of two determinations.
Representative test results, obtained by the above described assay measuring binding affinity to HEK293 cells expressing human (h) receptors, are shown in the Table 1.

[3] = read-out: Ki h-GABAA α2β2γ1, membranes from HEK293F cells, [3H]RO7239181 20-30 nM, mean of two determinations

Row | SMILES | Ki [1] [nM] | Ki [1, 3] [nM] | Ki [2] [nM]
1 | C[C@@H]1N=C(c2c(F)cccc2F)c2c(sc3c2C[C@@H](C(F)F)C3)-n2nc(C(=O)NCCO)nc21 [Example 18, (7S,13R)-13-(difluoromethyl)-9-(2,6-difluorophenyl)-N-(2-hydroxyethyl)-7-methyl-16-thia-2,3,5,8-tetrazatetracyclo [8.6.0.02,6.011,15]hexadeca-1(10),3,5,8,11(15)-pentaene-4-carboxamide] | 5.7 | 5.7 | 2.5
2 | Cc1nnc2n1-c1sc3c(c1C(c1c(F)cccc1Cl)=N[C@H]2C)C[C@@H](C(F)F)C3 [Example 9, (7S,13R)-9-(2-chloro-6-fluoro-phenyl)-13-(difluoromethyl)-3,7-dimethyl-16-thia-2,4,5,8-tetrazatetracyclo [8.6.0.02,6.011,15]hexadeca-1(10),3,5,8,11(15)-pentaene] | 3.6 | 3.6 | 1.6
3 | C[C@@H]1N=C(c2c(F)cccc2F)c2c(sc3c2C[C@@H](C(F)F)C3)-n2c(CO)cnc21 [Example 21, [(7S,13R)-13-(difluoromethyl)-9-(2,6-difluorophenyl)-7-methyl-16-thia-2,5,8-triazatetracyclo [8.6.0.02,6.011,15]hexadeca-1(10),3,5,8,11(15)-pentaen-3-yl]methanol] | 2.97 | 2.97 | 4.7
4 | Fc1cccc(F)c1C1=NCc2nnc(C3CC3)n2-c2sc3c(c21)C[C@@H](C(F)F)C3 [Example 7, (13R)-3-cyclopropyl-13-(difluoromethyl)-9-(2,6-difluorophenyl)-16-thia-2,4,5,8-tetrazatetracyclo [8.6.0.02,6.011,15]hexadeca-1(10),3,5,8,11(15)-pentaene] | 6.4 | 6.4 | 2.1
5 | Cc1nnc2n1-c1sc3c(c1C(c1c(F)cccc1F)=NC2)C[C@@H](C)C3 [Example 14, (13R)-9-(2,6-difluorophenyl)-3,13-dimethyl-16-thia-2,4,5,8-tetrazatetracyclo [8.6.0.02,6.011,15]hexadeca-1(10),3,5,8,11(15)-pentaene] | 2.8 | 2.8 | 1.6
6 | Cc1nnc2n1-c1sc3c(c1C(c1c(F)cccc1F)=N[C@H]2C)C[C@@H](C(F)F)C3 [Example 5, (7S,13R)-13-(difluoromethyl)-9-(2,6-difluorophenyl)-3,7-dimethyl-16-thia-2,4,5,8-tetrazatetracyclo [8.6.0.02,6.011,15]hexadeca-1(10),3,5,8,11(15)-pentaene] | 3.4 | 3.4 | 1.2
7 | Cc1nnc2n1-c1sc3c(c1C(c1c(F)cccc1F)=N[C@H]2C)C[C@@H](C)C3 [Example 15, (7S,13R)-9-(2,6-difluorophenyl)-3,7,13-trimethyl-16-thia-2,4,5,8-tetrazatetracyclo [8.6.0.02,6.011,15]hexadeca-1(10),3,5,8,11(15)-pentaene] | 6.3 | 6.3 | 1.4
8 | Cc1nnc2n1-c1sc3c(c1C(c1c(F)cccc1F)=N[C@H]2C)C[C@@H](C(F)(F)F)C3 [Example 13, (7S,13R)-9-(2,6-difluorophenyl)-3,7-dimethyl-13-(trifluoromethyl)-16-thia-2,4,5,8-tetrazatetracyclo [8.6.0.02,6.011,15]hexadeca-1(10),3,5,8,11(15)-pentaene] | 16.2 | 16.2 | 5.9
9 | Cc1nc2n(n1)-c1sc3c(c1C(c1c(F)cccc1F)=N[C@H]2C)C[C@H](C(F)F)C3 [Example 17, (7S,13S)-13-(difluoromethyl)-9-(2,6-difluorophenyl)-4,7-dimethyl-16-thia-2,3,5,8-tetrazatetracyclo [8.6.0.02,6.011,15]hexadeca-1(10),3,5,8,11(15)-pentaene] | 57.9 | 57.9 | 31.6
10 | Cc1nnc2n1-c1sc3c(c1C(c1c(F)cccc1F)=NC2)C[C@@H](C(F)F)C3 [Example 3, (13R)-13-(difluoromethyl)-9-(2,6-difluorophenyl)-3-methyl-16-thia-2,4,5,8-tetrazatetracyclo [8.6.0.02,6.011,15]hexadeca-1(10),3,5,8,11(15)-pentaene] | 2.9 | 2.9 | 1.8
11 | Cc1nc2n(n1)-c1sc3c(c1C(c1c(F)cccc1F)=N[C@H]2C)C[C@@H](C(F)F)C3 [Example 16, (7S,13R)-13-(difluoromethyl)-9-(2,6-difluorophenyl)-4,7-dimethyl-16-thia-2,3,5,8-tetrazatetracyclo [8.6.0.02,6.011,15]hexadeca-1(10),3,5,8,11(15)-pentaene] | 2.3 | 2.3 | 1
12 | Cc1nnc2n1-c1sc3c(c1C(c1c(F)cccc1Cl)=NC2)C[C@@H](C(F)F)C3 [Example 4, (13R)-9-(2-chloro-6-fluoro-phenyl)-13-(difluoromethyl)-3-methyl-16-thia-2,4,5,8-tetrazatetracyclo [8.6.0.02,6.011,15]hexadeca-1(10),3,5,8,11(15)-pentaene] | 4.6 | 4.6 | 1.2
13 | Fc1cccc(Cl)c1C1=NCc2nnc(C3CC3)n2-c2sc3c(c21)C[C@@H](C(F)F)C3 [Example 6, (13R)-9-(2-chloro-6-fluoro-phenyl)-3-cyclopropyl-13-(difluoromethyl)-16-thia-2,4,5,8-tetrazatetracyclo [8.6.0.02,6.011,15]hexadeca-1(10),3,5,8,11(15)-pentaene] | 6.6 | 6.6 | 3.4
14 | Fc1cccc(F)c1C1=NCc2nnc(-c3cccnn3)n2-c2sc3c(c21)C[C@@H](C(F)F)C3 [Example 10, (13R)-13-(difluoromethyl)-9-(2,6-difluorophenyl)-3-pyridazin-3-yl-16-thia-2,4,5,8-tetrazatetracyclo [8.6.0.02,6.011,15]hexadeca-1(10),3,5,8,11(15)-pentaene] | 3 | 3 | 3
15 | Cc1cnc2n1-c1sc3c(c1C(c1c(F)cccc1F)=N[C@H]2C)C[C@@H](C(F)F)C3 [Example 20, (7S,13R)-13-(difluoromethyl)-9-(2,6-difluorophenyl)-3,7-dimethyl-16-thia-2,5,8-triazatetracyclo [8.6.0.02,6.011,15]hexadeca-1(10),3,5,8,11(15)-pentaene] | 2.24 | 2.24 | 3.6
16 | Cc1nnc2n1-c1sc3c(c1C(c1c(F)cccc1Cl)=NC2)C[C@@H](C#N)C3 [Example 1, (13R)-9-(2-chloro-6-fluoro-phenyl)-3-methyl-16-thia-2,4,5,8-tetrazatetracyclo [8.6.0.02,6.011,15]hexadeca-1(10),3,5,8,11(15)-pentaene-13-carbonitrile] | 25.4 | 25.4 | 8.8
